Data as given in patent US12491243B2, “Formulation containing TLR agonist and methods of use” (ACCESS TO ADVANCED HEALTH INSTITUTE, priority 2016, dated 2025).

Columns and labels:
[1] = imidazoquinolines such as 3M-052; reference (9); cited from earlier work
[2] = Adsorption to Alhydrogel® (aluminum oxyhydroxide): unbound material assayed in centrifuged supernatant; format: physicochemical; details: for TLR Agonist Conc. In Supernatant (T = 16 wks): storage at 5° C.; for TLR Agonist Conc. In Supernatant (T = 16 wks) / TLR Agonist Conc. In Supernatant (T = 0): the ligand itself, in combinations first value = 3M-052
Procedure: Adjuvant formulation characterization and stability. Aqueous nanosuspensions were characterized for particle size by dynamic light scattering (DLS) using the Malvern Instruments (Worcestershire, UK) Zetasizer Nano-S or —ZS. Aqueous nanosuspensions were diluted 1:10 or 1:100 fold in water in a polystyrene cuvette prior to analysis, which consisted of three measurements resulting in a scattering intensity-biased average diameter value reported as the Z-ave. Zeta potential was measured using the Zetasizer Nano-ZS using a disposable capillary cell, with nine consecutive measurements collected from each sample prepared at 1:10 dilution in water. In general, 3M-052 concentration was measured by UV absorbance at 322.5 nm after diluting formulations 1:20 into ethanol:HCl (98:2 v:v) and comparing to a standard curve. The dilution into organic solvent removes potential interference from light scattering of the nanosuspension particles. However, for the 3M-052 binding isotherm, where maximum sensitivity was desired, no dilution was performed for the samples or the standards. Alternatively, 3M-052 concentration was determined by reverse phase HPLC with charged aerosol detection. TLR9 CpG control concentration was measured by UV absorbance at 260 nm after 1:20 dilution into ethanol:HCl. GLA concentration was measured by reverse-phase HPLC with an C18 column (Atlantis T3 or Agilent XBridge) and charged aerosol detection (CAD) using a methanol:chloroform:water mobile gradient as described previously (6). To detect unbound TLR ligand, alum-containing formulations were centrifuged briefly as indicated and the supernatant assayed by UV absorbance or HPLC-CAD. Depending on experiment, centrifugation time was 2-5 min at 2,000-16,000×g. In some experiments (FIG. 2D and Table 4), to remove the influence of saline or buffer salts on the sedimentation of TLR agonists in aluminum salt preparations, aluminum salts were first centrifuged and the supernatants removed and replaced with water; this process was repeated for another wash prior to employing the aluminum salts in the binding studies.
Antigen adsorption to aluminum salts. Binding efficiency of 3M-052 and ID93 or HIV gp120 antigen to Alhydrogel® and AdjuPhos® was determined by UV-Vis Spectroscopy and SDS-PAGE with silver stain. 1-mL of formulation was prepared by mixing saline diluent, antigen, 3M-052-AF, and/or aluminum salt. To determine HIV gp120 antigen adsorption, 30 μl of sample supernatant was mixed with 10 μl of 4× reducing or non-reducing LDS Sample Buffer, following which 20-25 μl was loaded into a 10-lane SDS-PAGE gel with 15 μl of SeeBlue2 Prestained Standard. To determine ID93 adsorption, 45 μl of sample supernatant was mixed with 15 μl of 4× reducing LDS Sample Buffer, following which 25 μl was loaded into a 10-lane SDS-PAGE gel with 15 μl of SeeBlue2 Prestained Standard. The gels were run for 55 minutes at 190 V and then placed into a fixing solution of 50:40:10 EtOH:CH3COOH:H2O for overnight. […]
To determine the adsorption capacity of Alhydrogel® for 3M-052-AF, the nanosuspension at various concentrations was mixed with aluminum oxyhydroxide and allowed to sit for ˜30 min with intermittent vortexing, followed by centrifugation such that the aluminum particles pelleted. […] The adsorption stability of 3M-052-AF on Alhydrogel® over time was evaluated by assaying samples for unbound 3M-052 before and after storage at 5° C. for 16 wks. […]

human TLR8 = target: T1, human TLR8 (Homo sapiens, UniProt Q9NR97); details: in vitro; reference (5); cited from earlier work
T1 sequence (Q9NR97 27-1041): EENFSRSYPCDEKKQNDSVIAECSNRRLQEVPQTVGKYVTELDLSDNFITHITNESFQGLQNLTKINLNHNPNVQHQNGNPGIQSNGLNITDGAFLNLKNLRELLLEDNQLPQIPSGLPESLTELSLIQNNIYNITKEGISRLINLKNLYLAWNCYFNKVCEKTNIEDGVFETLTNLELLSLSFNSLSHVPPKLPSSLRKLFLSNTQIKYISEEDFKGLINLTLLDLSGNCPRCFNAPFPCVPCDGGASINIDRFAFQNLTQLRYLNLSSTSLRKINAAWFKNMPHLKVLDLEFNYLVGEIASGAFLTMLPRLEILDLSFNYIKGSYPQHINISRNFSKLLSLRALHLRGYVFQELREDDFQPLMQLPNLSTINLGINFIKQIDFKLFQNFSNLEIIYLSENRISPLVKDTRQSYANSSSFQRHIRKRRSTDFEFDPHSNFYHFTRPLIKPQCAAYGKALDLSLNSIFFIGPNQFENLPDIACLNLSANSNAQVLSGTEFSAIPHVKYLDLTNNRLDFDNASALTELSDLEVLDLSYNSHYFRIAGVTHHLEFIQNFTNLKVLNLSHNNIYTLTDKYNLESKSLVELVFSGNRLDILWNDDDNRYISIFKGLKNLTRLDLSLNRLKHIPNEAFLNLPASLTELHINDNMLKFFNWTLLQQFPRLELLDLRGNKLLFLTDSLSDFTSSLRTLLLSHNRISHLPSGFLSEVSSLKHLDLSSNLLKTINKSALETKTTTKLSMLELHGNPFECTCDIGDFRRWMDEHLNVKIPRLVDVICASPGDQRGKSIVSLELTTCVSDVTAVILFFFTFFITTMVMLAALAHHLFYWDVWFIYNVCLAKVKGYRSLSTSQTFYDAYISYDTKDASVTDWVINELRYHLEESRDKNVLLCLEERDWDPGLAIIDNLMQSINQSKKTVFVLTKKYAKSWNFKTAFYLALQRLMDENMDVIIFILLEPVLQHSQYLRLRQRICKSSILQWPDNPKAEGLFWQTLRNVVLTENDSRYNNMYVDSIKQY

human TLR7 = target: T2, human TLR7 (Homo sapiens, UniProt Q9NYK1); details: in vitro; reference (5); cited from earlier work
T2 sequence (Q9NYK1 27-1049): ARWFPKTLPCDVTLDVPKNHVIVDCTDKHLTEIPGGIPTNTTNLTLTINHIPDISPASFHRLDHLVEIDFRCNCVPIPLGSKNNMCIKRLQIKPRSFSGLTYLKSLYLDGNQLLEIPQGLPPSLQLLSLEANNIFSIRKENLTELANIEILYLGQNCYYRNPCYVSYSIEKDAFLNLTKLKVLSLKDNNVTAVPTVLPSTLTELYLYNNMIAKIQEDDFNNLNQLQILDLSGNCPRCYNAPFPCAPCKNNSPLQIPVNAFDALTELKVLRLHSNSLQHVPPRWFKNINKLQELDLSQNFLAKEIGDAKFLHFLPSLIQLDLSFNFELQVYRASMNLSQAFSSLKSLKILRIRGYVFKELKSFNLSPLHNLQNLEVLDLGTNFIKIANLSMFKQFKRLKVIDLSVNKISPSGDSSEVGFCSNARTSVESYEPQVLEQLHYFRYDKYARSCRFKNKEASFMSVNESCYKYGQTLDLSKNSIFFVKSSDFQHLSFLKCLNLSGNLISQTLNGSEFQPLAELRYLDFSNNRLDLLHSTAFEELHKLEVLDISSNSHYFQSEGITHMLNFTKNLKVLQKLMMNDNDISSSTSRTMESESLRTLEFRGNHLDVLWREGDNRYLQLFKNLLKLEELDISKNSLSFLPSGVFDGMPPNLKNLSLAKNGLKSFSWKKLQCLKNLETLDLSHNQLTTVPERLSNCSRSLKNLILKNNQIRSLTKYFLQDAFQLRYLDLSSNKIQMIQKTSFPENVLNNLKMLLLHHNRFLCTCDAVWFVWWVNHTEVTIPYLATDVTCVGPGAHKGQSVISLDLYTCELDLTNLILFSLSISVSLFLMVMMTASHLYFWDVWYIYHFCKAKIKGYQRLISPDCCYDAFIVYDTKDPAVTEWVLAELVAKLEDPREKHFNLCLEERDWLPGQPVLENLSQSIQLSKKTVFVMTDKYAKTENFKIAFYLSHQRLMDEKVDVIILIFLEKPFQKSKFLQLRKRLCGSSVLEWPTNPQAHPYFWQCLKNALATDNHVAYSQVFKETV

CCCCCCCCCCCCCCCCCC(=O)NCCCCOn1c(CCCC)nc2c(N)nc3ccccc3c21 [3M-052, N-(4-{[4-amino-2-butyl-1H-imidazo[4,5-c]quinolin-1-yl]oxy}butyl)octadecanamide]
pKa [1]: ~7 | effect of other TLR ligands on adsorption of 3M-052 to aluminum oxyhydroxide ([2]; co-adsorbed GLA or TLR9 CpG control (Table 2)): did not appear to interfere | TLR Agonist Conc. In Supernatant (T = 16 wks) ([2]; no aluminum salt (control)): 74 ± 1 µg/mL | TLR Agonist Conc. In Supernatant (T = 0) ([2]; no aluminum salt (control)): 94 ± 1 µg/mL | TLR Agonist Conc. In Supernatant (T = 16 wks) ([2]; with Alhydrogel®): 10 ± 1 µg/mL | TLR Agonist Conc. In Supernatant (T = 0) ([2]; with Alhydrogel®): 11 ± 1 µg/mL | activation of human TLR8 (human TLR8): activates | activation of human TLR7 (human TLR7): activates
